The text below walks through data of patent publication US20180325914A1, “INCREASING STORAGE OF VITAMIN A, VITAMIN D AND/OR LIPIDS” (Salk Institute for Biological Studies, priority 2014, published 2018).

The assay has as its system p53 2.1.1 cell line in FVB/n hosts. Put plainly: Orthotopic allograft of p53 2.1.1 pancreatic cancer cells. In kind it is in vivo, mouse. The protocol: The p53 2.1.1 cell line, a luciferase-expressing cell line derived from autochthonous pancreatic cancer in pure FVB/n mice, was used for orthotopic transplantation into pancreata of immune-competent FVB/n hosts. Cells were resuspended in 50% DMEM+10% FBS, 50% Matrigel and 1,000 cells per mouse were injected into the body of the pancreas. One week after transplantation, transplanted mice were subject to bioluminescence imaging to measure luciferase activity and, thus, tumor burden. […] Mice were imaged again to measure bioluminescence signal (tumor burden) at experimental endpoint; pancreata were removed, weighed, and fixed or flash-frozen for further analysis.

Where [1] appears, read: 75 mg/kg JQ1 i.p. daily for 14 days.
Where [2] appears, read: 75 mg/kg JQ1 i.p. daily for 14 days vs vehicle.

On to `Cc1sc2c(c1C)C(c1ccc(Cl)cc1)=N[C@@H](CC(=O)OC(C)(C)C)c1nnc(C)n1-2` [JQ1, (S)-tert-butyl 2-(4-(4-chlorophenyl)-2,3,9-trimethyl-6H-thieno[3,2-f][1,2,4]triazolo[4,3-a][1,4]diazepin-6-yl)acetate], for which, under setting [1], the “BLI and pancreas weight” value is listed as “significantly reduced”; the “number of phospho-H3+ tumor cells, and number of CD45 and DAPI containing cells” value is “significantly reduced”. Under setting [2], the “decrease in cell proliferation (phospho-H3+)” value is “about 50%”; the “decrease in leukocyte recruitment (CD45)” value is reported as “about 70%”; the “decrease in luciferase light units (tumor cell count, tumor burden)” value is “about 33%”.
